Test results taken from patent US8410310B2, “Trypsin-like serine protease inhibitors, and their preparation and use” (The Medicines Company (Leipzig) GmbH, priority 2006, dated 2013).
Read-outs that look alike come from different tables or passages of the source.

What was measured:
Format in all cases: biochemical
Xa = Xa (Homo sapiens, UniProt P00742); assay: Determination of inhibition constants for Xa
Protocol: (§1) The inhibitory effect for the individual enzymes was determined in analogy to a previously disclosed method (Stürzebecher et al., 1997).
(§2) For zero order kinetics, the reaction was stopped after 20 min by adding 25 μl of acetic acid (50% v/v), and the absorption at 405 nm was determined using a Microplate Reader (Multiscan Ascent, from Thermo). In the case of pseudo-first order kinetics, the reaction rates in the equilibrium state were ascertained by recording the reaction kinetics. The Ki values were ascertained either in accordance with Dixon (1953) by linear regression using a computer program or by parameter fitting in accordance with the rate equation for competitive inhibition. The Ki values are the average of at least two determinations.

plasmin = plasmin (Homo sapiens, UniProt P00747); assay: Determination of inhibition constants for plasmin; set-up: purchased Calbiochem
Protocol: as §1, §2

plasma kallikrein = plasma kallikrein (Homo sapiens, UniProt P03952); assay: Determination of inhibition constants for PK; set-up: purchased Enzyme Research Lab. / Enzyme Research Laboratories
Protocol: as §1, §2

Thrombin = Thrombin (Homo sapiens, UniProt P00734); assay: Determination of inhibition constants for thrombin
Protocol: as §1, §2

[1] = 25° C., substrate Chromozym PL, pH 8.0, read-out: Plasmin [Ki]
[2] = 25° C., substrate S2302, pH 8.0, read-out: PK [Ki]
[3] = summary of results, read-out: Ki value of the plasmin inhibition
[4] = summary of results, read-out: Ki value of the plasma kallikrein inhibition

Chain of Xa (P00742 235-488 limits assumed): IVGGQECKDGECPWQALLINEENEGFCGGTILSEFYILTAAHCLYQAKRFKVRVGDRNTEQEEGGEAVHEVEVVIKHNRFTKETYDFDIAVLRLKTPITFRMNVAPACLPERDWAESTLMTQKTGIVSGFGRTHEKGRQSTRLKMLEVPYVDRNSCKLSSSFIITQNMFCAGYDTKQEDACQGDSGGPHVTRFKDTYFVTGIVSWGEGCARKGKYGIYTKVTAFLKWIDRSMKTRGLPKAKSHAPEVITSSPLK
Chain of Xa (P00742 41-179 limits assumed): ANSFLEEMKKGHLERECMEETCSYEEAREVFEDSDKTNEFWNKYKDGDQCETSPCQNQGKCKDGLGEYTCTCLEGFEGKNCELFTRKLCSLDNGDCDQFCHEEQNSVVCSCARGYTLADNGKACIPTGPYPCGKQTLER
Chain of plasmin (P00747 581-810 limits assumed): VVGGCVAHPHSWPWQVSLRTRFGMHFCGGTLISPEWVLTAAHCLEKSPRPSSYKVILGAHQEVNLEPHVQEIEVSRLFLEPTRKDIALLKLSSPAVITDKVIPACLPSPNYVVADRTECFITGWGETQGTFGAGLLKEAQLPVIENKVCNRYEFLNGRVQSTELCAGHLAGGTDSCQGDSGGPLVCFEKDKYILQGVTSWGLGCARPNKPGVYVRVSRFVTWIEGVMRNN
Chain of plasmin (P00747 97-580 partner limits assumed): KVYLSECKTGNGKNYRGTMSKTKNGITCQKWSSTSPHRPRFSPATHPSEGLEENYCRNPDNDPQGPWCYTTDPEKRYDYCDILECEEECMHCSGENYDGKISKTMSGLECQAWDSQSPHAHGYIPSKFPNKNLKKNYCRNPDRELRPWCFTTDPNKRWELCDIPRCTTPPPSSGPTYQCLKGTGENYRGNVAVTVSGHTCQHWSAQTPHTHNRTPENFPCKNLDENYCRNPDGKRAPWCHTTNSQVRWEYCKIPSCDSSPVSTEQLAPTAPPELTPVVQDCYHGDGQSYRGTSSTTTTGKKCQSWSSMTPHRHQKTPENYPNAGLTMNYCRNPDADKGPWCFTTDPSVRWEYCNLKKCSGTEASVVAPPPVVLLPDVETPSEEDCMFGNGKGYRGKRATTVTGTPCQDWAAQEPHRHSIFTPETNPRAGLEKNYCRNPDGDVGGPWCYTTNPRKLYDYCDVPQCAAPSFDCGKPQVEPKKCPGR
Chain of plasma kallikrein (P03952 391-638 limits assumed): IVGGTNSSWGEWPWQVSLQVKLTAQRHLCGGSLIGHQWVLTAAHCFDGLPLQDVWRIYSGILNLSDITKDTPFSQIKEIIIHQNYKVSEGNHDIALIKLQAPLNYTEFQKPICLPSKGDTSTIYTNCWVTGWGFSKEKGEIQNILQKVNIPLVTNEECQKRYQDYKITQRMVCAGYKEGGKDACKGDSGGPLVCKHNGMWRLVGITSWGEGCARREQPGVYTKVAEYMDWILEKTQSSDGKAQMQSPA
Chain of plasma kallikrein (P03952 20-390 partner limits assumed): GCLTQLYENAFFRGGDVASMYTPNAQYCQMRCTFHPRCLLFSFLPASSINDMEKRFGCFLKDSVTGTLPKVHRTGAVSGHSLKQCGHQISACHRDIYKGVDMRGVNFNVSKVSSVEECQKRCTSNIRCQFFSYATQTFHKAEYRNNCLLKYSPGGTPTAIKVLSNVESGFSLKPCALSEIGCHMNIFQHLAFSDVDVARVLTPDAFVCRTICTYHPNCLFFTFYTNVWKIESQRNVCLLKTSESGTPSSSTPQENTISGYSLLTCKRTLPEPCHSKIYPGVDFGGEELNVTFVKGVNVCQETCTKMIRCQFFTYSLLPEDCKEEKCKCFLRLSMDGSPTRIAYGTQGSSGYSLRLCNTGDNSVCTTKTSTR

Row | Structure (SMILES) | Ki (Xa) | Ki (plasmin; [1]) | Ki (plasma kallikrein; [2]) | Ki (Thrombin) | Ki (plasmin; [3]) | Ki (plasma kallikrein; [4])
1 | N=C(N)c1ccc(CNC(=O)[C@H](Cc2cccc(CN)c2)NC(=O)[C@@H](CCCc2ccccc2)NS(=O)(=O)Cc2ccc(C(=O)O)cc2)cc1 [compound 2] | < 100 nM | < 10 nM | < 10 nM | < 1000 nM |  | 
2 | N=C(N)Nc1ccc(CNC(=O)[C@H](Cc2cccc(CN)c2)NC(=O)[C@@H](CCCc2ccccc2)NS(=O)(=O)Cc2cccc(C(=O)O)c2)cc1 [compound 4, 3-HOOC-Bzls-d-Ppg-Phe(3-Ame)-4-guanidinobenzylamide×2 acetate] | > 1000 nM | < 100 nM | < 10 nM | > 1000 nM |  | 
3 | N=C(N)c1ccc(CNC(=O)[C@H](Cc2cccc(CN)c2)NC(=O)[C@@H](CCCc2ccc(Cl)cc2)NS(=O)(=O)Cc2ccccc2)cc1 [compound 7] | < 10 nM | < 10 nM | < 10 nM | < 100 nM |  | 
4 | N=C(N)c1ccc(CNC(=O)[C@H](Cc2cccc(CN)c2)NC(=O)[C@@H](CCCc2ccccc2Cl)NS(=O)(=O)Cc2ccccc2)cc1 [compound 8] | < 100 nM | < 10 nM | < 10 nM | < 100 nM |  | 
5 | Cc1ccc(CCC[C@@H](NS(=O)(=O)Cc2ccccc2)C(=O)N[C@@H](Cc2cccc(CN)c2)C(=O)NCc2ccc(C(=N)N)cc2)cc1 [compound 9] | < 100 nM | < 10 nM | < 10 nM | < 1000 nM |  | 
6 | COc1ccc(CCC[C@@H](NS(=O)(=O)Cc2ccccc2)C(=O)N[C@@H](Cc2cccc(CN)c2)C(=O)NCc2ccc(C(=N)N)cc2)cc1 [compound 10] | < 100 nM | < 10 nM | < 10 nM | < 1000 nM |  | 
7 | N=C(N)c1ccc(CNC(=O)[C@H](Cc2cccc(CN)c2)NC(=O)[C@@H](CCCc2ccc(C(F)(F)F)cc2)NS(=O)(=O)Cc2ccccc2)cc1 [compound 11] | < 10 nM | < 10 nM | < 10 nM | < 1000 nM |  | 
8 | N=C(N)c1ccc(CNC(=O)[C@H](Cc2cccc(CN)c2)NC(=O)[C@@H](CCCc2ccc(OC(F)(F)F)cc2)NS(=O)(=O)Cc2ccccc2)cc1 [compound 12] | < 100 nM | < 10 nM | < 10 nM | < 1000 nM |  | 
9 | CC(C)(C)c1ccc(C[C@@H](NS(=O)(=O)Cc2ccccc2)C(=O)N[C@@H](Cc2cccc(CN)c2)C(=O)NCc2ccc(C(=N)N)cc2)cc1 [compound 13] | < 100 nM | < 100 nM | < 10 nM | < 1000 nM | < 5 nM | 
10 | N=C(N)c1ccc(CNC(=O)[C@H](Cc2cccc(CN)c2)NC(=O)[C@@H](Cc2ccc(-c3ccccc3)cc2)NS(=O)(=O)Cc2ccccc2)cc1 [compound 14] | < 100 nM | < 10 nM | < 10 nM | < 1000 nM | < 5 nM | 
11 | N=C(N)c1ccc(CNC(=O)[C@H](Cc2cccc(CN)c2)NC(=O)[C@@H](Cc2cccc3ccccc23)NS(=O)(=O)Cc2ccccc2)cc1 [compound 15] | < 100 nM | < 10 nM | < 10 nM | < 100 nM |  | 
12 | N=C(N)c1ccc(CNC(=O)[C@H](Cc2cccc(CN)c2)NC(=O)[C@@H](Cc2cccc3ccccc23)NS(=O)(=O)Cc2ccc(C(=O)O)cc2)cc1 [compound 16] | < 1000 nM | < 10 nM | < 10 nM | < 1000 nM |  | 
13 | N=C(N)c1ccc(CNC(=O)[C@H](Cc2cccc(CN)c2)NC(=O)[C@@H](Cc2ccc3ccccc3c2)NS(=O)(=O)Cc2ccccc2)cc1 [compound 17] | < 100 nM | < 10 nM | < 10 nM | < 1000 nM |  | 
14 | N=C(N)c1ccc(CNC(=O)[C@H](Cc2cccc(CN)c2)NC(=O)[C@@H](Cc2ccc3ccccc3c2)NS(=O)(=O)Cc2cccc(C(=O)O)c2)cc1 [compound 18] | < 100 nM | < 10 nM | < 10 nM | > 1000 nM |  | 
15 | N=C(N)c1ccc(CNC(=O)[C@H](Cc2cccc(CN)c2)NC(=O)[C@@H](Cc2ccc3ccccc3c2)NS(=O)(=O)Cc2ccc(C(=O)O)cc2)cc1 [compound 19] | < 1000 nM | < 10 nM | < 10 nM | < 1000 nM |  | 
16 | N=C(N)c1ccc(CNC(=O)[C@H](Cc2cccc(CN)c2)NC(=O)[C@@H](CC2CCCCC2)NS(=O)(=O)Cc2ccccc2)cc1 [compound 20] | < 100 nM | < 10 nM | < 10 nM | < 1000 nM |  | 
17 | N=C(N)c1ccc(CNC(=O)[C@H](Cc2cccc(CN)c2)NC(=O)[C@@H](CCCC2CCCCC2)NS(=O)(=O)Cc2ccccc2)cc1 [compound 21] | < 100 nM | < 10 nM | < 10 nM | < 1000 nM |  | 
18 | N=C(N)c1ccc(CNC(=O)[C@H](Cc2cccc(CN)c2)NC(=O)[C@H](NS(=O)(=O)Cc2ccccc2)C(c2ccccc2)c2ccccc2)cc1 [compound 22] | < 100 nM | < 10 nM | < 10 nM | < 10 nM |  | 

Row | Structure (SMILES) | Ki (Xa) | Ki (plasmin; [1]) | Ki (plasma kallikrein; [2]) | Ki (Thrombin) | Ki (plasmin; [3]) | Ki (plasma kallikrein; [4])
19 | N=C(N)c1ccc(CNC(=O)[C@H](Cc2cccc(CN)c2)NC(=O)[C@H](NS(=O)(=O)Cc2cccc(C(=O)O)c2)C(c2ccccc2)c2ccccc2)cc1 [compound 23] | < 100 nM | < 10 nM | < 10 nM | < 100 nM |  | 
20 | N=C(N)c1ccc(CNC(=O)[C@H](Cc2cccc(CN)c2)NC(=O)[C@@H](CCc2ccc(O)cc2)NS(=O)(=O)Cc2ccccc2)cc1 [compound 24] | < 10 nM | < 10 nM | < 10 nM | < 1000 nM |  | 
21 | N=C(N)c1ccc(CNC(=O)[C@H](CCc2ccc(CN)cc2)NC(=O)[C@@H](CCc2ccc(O)cc2)NS(=O)(=O)Cc2ccccc2)cc1 [compound 26] | < 10 nM | < 10 nM | < 10 nM | < 1000 nM |  | 
22 | N=C(N)c1ccc(CNC(=O)[C@H](CCc2ccccc2)NC(=O)[C@@H](CCc2ccc(O)cc2)NS(=O)(=O)Cc2ccccc2)cc1 [compound 27] | < 10 nM | < 10 nM | < 10 nM | < 1000 nM |  | < 1 nM
23 | N=C(N)c1ccc(CNC(=O)[C@H](Cc2ccc(CN)cc2)NC(=O)[C@@H](CCCc2ccccc2)NS(=O)(=O)Cc2ccccc2)cc1 [compound 28] | < 1000 nM | < 10 nM | < 10 nM | < 1000 nM |  | 
24 | N=C(N)c1ccc(CNC(=O)[C@H](Cc2ccc(CN)cc2)NC(=O)[C@@H](CCCc2ccccc2)NS(=O)(=O)Cc2ccc(C(=O)O)cc2)cc1 [compound 29] | < 1000 nM | < 10 nM | < 10 nM | < 1000 nM |  | < 1 nM
25 | N=C(N)c1ccc(CNC(=O)[C@H](Cc2ccc(CN)cc2)NC(=O)[C@@H](CCCc2ccccc2)NS(=O)(=O)Cc2cccc(C(=O)O)c2)cc1 [compound 30] | < 1000 nM | < 10 nM | < 10 nM | > 1000 nM |  | 
26 | N=C(N)c1ccc(CNC(=O)[C@H](CCc2ccc(CN)cc2)NC(=O)[C@@H](CCCc2ccccc2)NS(=O)(=O)Cc2ccccc2)cc1 [compound 31] | < 1000 nM | < 10 nM | < 100 nM | < 100 nM |  | 
27 | N=C(N)c1ccc(CNC(=O)[C@H](Cc2c[nH]cn2)NC(=O)[C@@H](CCCc2ccccc2)NS(=O)(=O)Cc2ccccc2)cc1 [compound 32] | < 1000 nM | < 10 nM | < 100 nM | < 100 nM |  | 
28 | N=C(N)c1ccc(CNC(=O)[C@H](Cc2c[nH]cn2)NC(=O)[C@@H](CCCc2ccccc2)NS(=O)(=O)Cc2cccc(C(=O)O)c2)cc1 [compound 33] | < 1000 nM | < 10 nM | < 100 nM | > 1000 nM |  | 
29 | N=C(N)c1ccc(CNC(=O)[C@H](CCc2ccccc2)NC(=O)[C@@H](CCCc2ccccc2)NS(=O)(=O)Cc2ccccc2)cc1 [compound 34] | < 1000 nM | < 10 nM | < 10 nM | < 100 nM |  | 
30 | N=C(N)c1ccc(CNC(=O)[C@H](CCc2ccccc2)NC(=O)[C@@H](CCCc2ccccc2)NS(=O)(=O)Cc2ccc(C(=O)O)cc2)cc1 [compound 35] | < 1000 nM | < 10 nM | < 10 nM | < 1000 nM | < 5 nM | 
31 | N=C(N)c1ccc(CNC(=O)[C@H](CCc2ccccc2)NC(=O)[C@@H](CCCc2ccccc2)NS(=O)(=O)Cc2cccc(C(=O)O)c2)cc1 [compound 36] | < 100 nM | < 10 nM | < 10 nM | < 1000 nM |  | 
32 | N=C(N)c1ccc(CNC(=O)[C@H](CCc2ccc(CN)cc2)NC(=O)[C@@H](CC2CCCCC2)NS(=O)(=O)Cc2ccccc2)cc1 [compound 37] | < 100 nM | < 100 nM | < 100 nM | < 100 nM |  | 
33 | N=C(N)c1ccc(CC[C@H](NC(=O)[C@@H](CC2CCCCC2)NS(=O)(=O)Cc2ccccc2)C(=O)NCc2ccc(C(=N)N)cc2)cc1 [compound 38] | < 100 nM | < 10 nM | < 100 nM | < 10 nM | < 5 nM | 
34 | N=C(N)c1ccc(CNC(=O)[C@H](CCc2ccncc2)NC(=O)[C@@H](CCCc2ccccc2)NS(=O)(=O)Cc2ccccc2)cc1 [compound 39] | < 100 nM | < 10 nM | < 10 nM | < 10 nM | < 5 nM | < 1 nM
35 | CC(C)(C)OC[C@@H](NS(=O)(=O)Cc1ccccc1)C(=O)N[C@@H](Cc1cccc(CN)c1)C(=O)NCc1ccc(C(=N)N)cc1 [compound 71] | > 1000 nM |  |  |  |  | 
36 | N=C(N)c1ccc(CNC(=O)[C@H](Cc2cccc(CN)c2)NC(=O)[C@@H](CO)NS(=O)(=O)Cc2ccccc2)cc1 [compound 72] |  |  | < 100 nM |  |  | 
